Test results taken from ChEMBL document CHEMBL4842376, “Design, synthesis and biological evaluation of novel hybrids targeting mTOR and HDACs for potential treatment of hepatocellular carcinoma” (Eur J Med Chem, 2021).
Active and inactive are the calls of the source. The calls are words filed in the database; no cut-off is given here.

Key:
[1] = target: Histone deacetylase 1 (Homo sapiens, UniProt Q13547); assay: Inhibition of HDAC1 (unknown origin) using Ac-peptide as a substrate pretreated for 15 mins followed by substrate addition
Sequence of Histone deacetylase 1 (Q13547 whole entry): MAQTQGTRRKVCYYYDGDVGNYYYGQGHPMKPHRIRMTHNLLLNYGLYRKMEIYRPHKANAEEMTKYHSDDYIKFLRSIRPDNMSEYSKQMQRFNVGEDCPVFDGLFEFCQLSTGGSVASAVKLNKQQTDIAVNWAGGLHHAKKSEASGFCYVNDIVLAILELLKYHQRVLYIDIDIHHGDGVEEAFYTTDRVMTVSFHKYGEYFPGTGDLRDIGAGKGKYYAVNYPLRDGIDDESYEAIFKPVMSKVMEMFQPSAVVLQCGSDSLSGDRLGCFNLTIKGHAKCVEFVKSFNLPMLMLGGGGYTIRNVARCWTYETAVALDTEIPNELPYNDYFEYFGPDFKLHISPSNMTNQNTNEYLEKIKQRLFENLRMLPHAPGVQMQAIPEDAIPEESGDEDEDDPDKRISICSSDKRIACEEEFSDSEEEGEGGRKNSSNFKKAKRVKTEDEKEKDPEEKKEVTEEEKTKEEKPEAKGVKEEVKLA

[2] = target: Histone deacetylase (Homo sapiens) (UniProt Q13547+O15379+Q9UBN7+Q92769+Q9UQL6+Q8WUI4+Q9BY41+Q96DB2+P56524+Q9UKV0+Q969S8); assay: Inhibition of HDAC in human HepG2 cells assessed as upregulation of histone H3 acetylation at 6 uM measured after 24 hrs by western blot analysis; format: cell-based
[3] = tested on: HepG2; assay: Induction of apoptosis in human HepG2 cells assessed as live cells at 2.5 uM measured after 24 hrs by Annexin V-FITC/PI staining based flow cytometry analysis (Rvb= 84.6%); format: functional
[4] = tested on: HepG2; assay: Induction of cell cycle arrest in human HepG2 cells assessed as accumulation of cells in G2/M phase at 6 uM measured after 24 hrs by propidium iodide staining based flow cytometry analysis (Rvb= 17.8 to 18.5%); format: functional
[5] = tested on: HCT-116; assay: cells; format: functional, cell-based; details: Homo sapiens, HCT-116, 72 h
Description: Antiproliferative activity against human HCT-116 cells assessed as inhibition of cell growth measured after 72 hrs by MTT assay

[6] = target: T1, Serine/threonine-protein kinase mTOR (Homo sapiens, UniProt P42345); assay: Inhibition of mTOR (unknown origin) at 1 uM using U-Light-4E-BP1 peptide as a substrate in the presence of ATP incubated for 30 mins by Lance ultra assay relative to control
[7] = tested on: HepG2; assay: Induction of apoptosis in human HepG2 cells assessed as late apoptotic cells at 5 uM measured after 24 hrs by Annexin V-FITC/PI staining based flow cytometry analysis (Rvb= […]); format: functional
[8] = tested on: HepG2; assay: Induction of apoptosis in human HepG2 cells assessed as early apoptotic cells at 5 uM measured after 24 hrs by Annexin V-FITC/PI staining based flow cytometry analysis (Rvb= 6.15%); format: functional
[9] = target: T1, Serine/threonine-protein kinase mTOR; assay: Inhibition of mTOR (unknown origin) using U-Light-4E-BP1 peptide as a substrate in the presence of ATP incubated for 30 mins by Lance ultra assay
[10] = tested on: HepG2; assay: Antimigratory activity in human HepG2 cells assessed as reduction in wound closure measured after 24 to 48 hrs by scratch wound healing assay; format: functional, cell-based; details: dose 1.5-6 µM, time 24-48 hrs
[11] = tested on: A549; assay: cells; format: functional, cell-based; details: Homo sapiens, A549, 72 h
Description: Antiproliferative activity against human A549 cells assessed as inhibition of cell growth measured after 72 hrs by MTT assay

[12] = tested on: Huh-7; assay: cells; format: functional, cell-based; details: Homo sapiens, Huh-7, 72 h
Description: Antiproliferative activity against human Huh-7 cells assessed as inhibition of cell growth measured after 72 hrs by MTT assay

[13] = tested on: HepG2; assay: Induction of cell cycle arrest in human HepG2 cells assessed as accumulation of cells in G0/G1 phase at 6 uM measured after 24 hrs by propidium iodide staining based flow cytometry analysis (reference value: 52.7 to 63.2%); format: functional
[14] = tested on: HepG2; assay: Induction of cell cycle arrest in human HepG2 cells assessed as accumulation of cells in G2/M phase at 1.5 uM measured after 24 hrs by propidium iodide staining based flow cytometry analysis (Rvb= 17.8 to 18.5%); format: functional
[15] = tested on: Bel-7402; assay: Antiproliferative activity against human Bel-7402 cells assessed as inhibition of cell growth measured after 72 hrs by MTT assay; format: functional, cell-based; details: Bel-7402, 72 h
[16] = tested on: SNU-423; assay: Antiproliferative activity against human SNU-423 cells assessed as inhibition of cell growth measured after 72 hrs by MTT assay; format: functional, cell-based; details: SNU-423, 72 h
[17] = tested on: HepG2; assay: Induction of apoptosis in human HepG2 cells assessed as necrotic cells at 2.5 uM measured after 24 hrs by Annexin V-FITC/PI staining based flow cytometry analysis (Rvb= 0.082%); format: functional
[18] = tested on: HepG2; assay: Induction of apoptosis in human HepG2 cells assessed as live cells at 5 uM measured after 24 hrs by Annexin V-FITC/PI staining based flow cytometry analysis (Rvb= 84.6%); format: functional
[19] = tested on: Hep 3B2; assay: cells; format: functional, cell-based; details: Homo sapiens, Hep3B, 72 h
Description: Antiproliferative activity against human Hep3B cells assessed as inhibition of cell growth measured after 72 hrs by MTT assay

[20] = tested on: MDA-MB-231; assay: cells; format: functional, cell-based; details: Homo sapiens, MDA-MB-231, 72 h
Description: Antiproliferative activity against human MDA-MB-231 cells assessed as inhibition of cell growth measured after 72 hrs by MTT assay

[21] = tested on: HepG2; assay: Induction of cell cycle arrest in human HepG2 cells assessed as accumulation of cells in S phase at 3 uM measured after 24 hrs by propidium iodide staining based flow cytometry analysis (reference value: 17 to 26.4%); format: functional
[22] = target: Histone deacetylase 2 (Homo sapiens, UniProt Q92769)
Sequence of Histone deacetylase 2 (Q92769 whole entry): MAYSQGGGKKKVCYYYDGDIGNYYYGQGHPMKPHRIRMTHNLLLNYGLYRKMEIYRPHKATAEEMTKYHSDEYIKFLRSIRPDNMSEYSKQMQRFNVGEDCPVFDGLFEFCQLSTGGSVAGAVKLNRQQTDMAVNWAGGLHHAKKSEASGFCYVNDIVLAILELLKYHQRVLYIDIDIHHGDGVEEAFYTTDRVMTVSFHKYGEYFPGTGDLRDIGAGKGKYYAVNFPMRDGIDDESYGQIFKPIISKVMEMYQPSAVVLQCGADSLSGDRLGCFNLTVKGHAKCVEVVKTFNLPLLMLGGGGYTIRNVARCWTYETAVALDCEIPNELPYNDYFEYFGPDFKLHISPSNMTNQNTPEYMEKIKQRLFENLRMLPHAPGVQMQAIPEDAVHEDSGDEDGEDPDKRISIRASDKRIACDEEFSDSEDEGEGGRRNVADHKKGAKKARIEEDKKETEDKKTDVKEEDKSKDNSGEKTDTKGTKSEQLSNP

[23] = target: T2, Histone deacetylase 8 (Homo sapiens, UniProt Q9BY41); assay: Inhibition of HDAC8 (unknown origin) using Ac-peptide as a substrate pretreated for 15 mins followed by substrate addition
T2 sequence (Q9BY41 whole entry): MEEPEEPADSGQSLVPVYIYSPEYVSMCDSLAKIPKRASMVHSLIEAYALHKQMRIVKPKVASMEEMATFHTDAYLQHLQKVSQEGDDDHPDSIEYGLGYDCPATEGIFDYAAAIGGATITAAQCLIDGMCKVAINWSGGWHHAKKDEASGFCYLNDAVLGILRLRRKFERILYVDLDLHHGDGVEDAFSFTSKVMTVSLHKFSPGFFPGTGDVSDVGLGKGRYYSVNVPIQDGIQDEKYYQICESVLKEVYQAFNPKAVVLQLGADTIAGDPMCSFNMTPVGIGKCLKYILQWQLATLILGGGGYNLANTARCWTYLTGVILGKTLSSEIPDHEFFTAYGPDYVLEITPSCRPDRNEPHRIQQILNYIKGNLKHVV

[24] = tested on: HeLa; assay: cells; format: functional, cell-based; details: Homo sapiens, 72 h
Description: Antiproliferative activity against human HeLa cells assessed as inhibition of cell growth measured after 72 hrs by MTT assay

[25] = tested on: CNE-2; assay: cells; format: functional, cell-based; details: Homo sapiens, CNE-2, 72 h
Description: Antiproliferative activity against human CNE-2 cells assessed as inhibition of cell growth measured after 72 hrs by MTT assay

[26] = target: Histone deacetylase 3 (Homo sapiens, UniProt O15379); assay: Inhibition of HDAC3 (unknown origin) using Ac-peptide as a substrate pretreated for 15 mins followed by substrate addition
Sequence of Histone deacetylase 3 (O15379 whole entry): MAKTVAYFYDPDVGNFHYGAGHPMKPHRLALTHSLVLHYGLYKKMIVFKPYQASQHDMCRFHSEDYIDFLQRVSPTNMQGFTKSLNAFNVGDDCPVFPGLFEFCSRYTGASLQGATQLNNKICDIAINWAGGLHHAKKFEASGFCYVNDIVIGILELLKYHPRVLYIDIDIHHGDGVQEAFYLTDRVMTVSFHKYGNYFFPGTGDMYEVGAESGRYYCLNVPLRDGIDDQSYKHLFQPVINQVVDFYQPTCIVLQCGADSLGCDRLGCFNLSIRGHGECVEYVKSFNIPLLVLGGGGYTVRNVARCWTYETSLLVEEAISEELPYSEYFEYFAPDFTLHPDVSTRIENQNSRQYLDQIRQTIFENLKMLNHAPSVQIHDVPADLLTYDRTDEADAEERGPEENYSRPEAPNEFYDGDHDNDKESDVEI

[27] = tested on: HepG2; assay: Antiproliferative activity against human HepG2 cells assessed as inhibition of cell growth measured after 72 hrs by MTT assay; format: functional, cell-based; details: HepG2, 72 h
[28] = tested on: HepG2; assay: Induction of apoptosis in human HepG2 cells assessed as necrotic cells at 5 uM measured after 24 hrs by Annexin V-FITC/PI staining based flow cytometry analysis (Rvb= 0.082%); format: functional

| SMILES | IC50 [1] [µM] | inhibition [2] | Activity [3] [%] | Activity [4] [%] | IC50 [5] [µM] | inhibition [6] [%] | Activity [7] [%] | Activity [8] [%] | IC50 [9] [µM] | Activity [10] | IC50 [11] [µM] | IC50 [12] [µM] | Activity [13] [%] | Activity [14] [%] | IC50 [15] [µM] | IC50 [16] [µM] | Activity [17] [%] | Activity [18] [%] | IC50 [19] [µM] | IC50 [20] [µM] | also measured |
| --- | --- | --- | --- | --- | --- | --- | --- | --- | --- | --- | --- | --- | --- | --- | --- | --- | --- | --- | --- | --- | --- |
| Nc1ncnc2c1c(-c1cnc3[nH]ccc3c1)nn2CCCCCCCCC(=O)NO | 0.02 | Active | 69.7 | 23.5 | 5.46 | 97.7 | 10.4 | 12 | 0.0923 | Dose-Dependent Effect | 12.2 | 7.38 | 66.6 | 19.4 | 18.9 | 7.5 | 0.56 | 77.5 | 8.39 | 11 | Activity [21]: 16.2%; IC50 [22]: 0.024 µM; IC50 [23]: 0.733 µM; IC50 [24]: 7.47 µM; IC50 [25]: 2.27 µM; IC50 [26]: 0.034 µM; IC50 [27]: 3.05 µM; Activity [28]: 0.15% |
| Nc1nc2cc(-c3nn(CCCCCCC(=O)NO)c4ncnc(N)c34)ccc2o1 | 0.0031 | Active | 63.7 | 15.7 | 5.39 | 99 | 14.5 | 15.3 | 0.00767 | Dose-Dependent Effect | 33 | 5.71 | 73.3 | 14.8 | > 50 | 6.1 | 0.15 | 69.6 | 14 | 8.43 | Activity [21]: 15.2%; IC50 [22]: 0.0032 µM; IC50 [23]: 0.231 µM; IC50 [24]: 6.41 µM; IC50 [25]: 4.36 µM; IC50 [26]: 0.0046 µM; IC50 [27]: 1.61 µM; Activity [28]: 0.59% |
